System: HeLa cells
Assay: Determination of the deamination activity in adherent HeLa cells: signal of EdU/EdC in DNA, detected by anti-bromodeoxyuridine antibody or click reaction
Type: cell-based, Human
Settings: for ratios of EC50 in EdU and EdC (KEdU½/KEdC½): two hours of incubation, without FdU
Description: • Figure 1 The metabolism of EdC and EdCMP from the perspective of the deamination activity of some known deaminases in human cells. CDA - 2'-deoxycytidine/cytidine deaminase; dCK - 2'-deoxycytidine kinase; dCMPDA - 2'-deoxycytidine-5'-phosphate deaminase; cdN and mdN - cytosolic and mitochondrial pyrimidine specific 5'-deoxynucleotidase • Figure 2: Schematic depiction of determination of the activity of the enzymes transforming cytosine derivatives into uracil derivatives. • Figure 3: Determination of the deamination activity in HeLa cells using specific antibodies or using a click reaction (Example 1). The figure depicts the dependence of the average intensity of the signals on the used concentrations of EdU or EdC after two hours of incubation with various concentrations of EdU or EdC without the addition of FdU. Two methods were used for the detection of both modified nucleosides: A) detection with a click reaction with an azido dye (Alexa Fluor 488- azide); B) detection using primary anti-bromodeoxyuridine antibody and secondary antibody conjugated with Alexa Fluor 488. The measured intensities of the signals were processed in the Sigma Plot software, in which the curve was constructed and the half of maximal effective concentration (EC50) was determined. It is clear from the course of the graphs that EdC is not likely to be incorporated in the DNA. This was confirmed also by the mutual ratios between the measured values of the intensities obtained by the antibodies and by the click reaction. These ratios were 1.099 for EdU and 1.060 for EdC. […] For the determination, it is also possible to use other measured concentrations, because there was no saturation of the signal even at higher concentrations. • Figure 4 Time curve (Example 1). […] The incorporated nucleosides were detected using a click reaction with azidofluorochrome. • Figure 5: The comparison of the incorporation of FU and FC into HeLa cells when using various concentrations (Example 1). […] EdU was detected with antibodies. […]

- ratios of EC50 in EdU and EdC (KEdU½/KEdC½) (detection performed by the antibodies): 0.23
- ratios of EC50 in EdU and EdC (KEdU½/KEdC½) (detection performed by the click reaction): 0.32
SMILES: C#Cc1cn([C@H]2C[C@H](O)[C@@H](CO)O2)c(=O)nc1N [EdC, 5-ethynyl-2'-deoxycytidine]
- concentration of EdU providing approximately such a signal as 5 µmol.l^-1 EdC (EdC around 5 µmol.l^-1, not in the saturation area): ~0.55 µmol/L

— EP3186387B1, “METHOD OF DETERMINING THE ACTIVITY OF ENZYMES CONVERTING CYTOSINE DERIVATIVES TO URACIL DERIVATIVES IN CELLS, TISSUES AND ORGANISMS” (Univerzita Palackého v Olomouci, priority 2014, dated 2016)
